The source of these data is ChEMBL document CHEMBL1133989, “Which aminoglycoside ring is most important for binding? A hydropathic analysis of gentamicin, paromomycin, and analogues” (Bioorg Med Chem Lett, 2001).

The subject of the assay is Ribosomal RNA A-site. Briefly: Binding affinity of aminoglycoside to 16S ribosomal RNA A-site in Escherichia coli. Format: nucleic-acid assay.
`NCCC1C(CO)OC(OC2C(O)C(N)CC(N)C2OC2OC(CN)C(O)C(O)C2N)C1O` (stereo not drawn): the Kd came out at 1700 nM.
With `NC[C@H]1O[C@H](O[C@H]2[C@H](O)[C@@H](O[C@H]3O[C@H](CO)[C@@H](O)[C@H](N)[C@H]3O)[C@H](N)C[C@@H]2N)[C@H](N)C[C@@H]1O` [TOBRAMYCIN] the figure was 1500 nM.
Turning to `NC[C@@H]1O[C@@H](O[C@H]2[C@H](O)[C@@H](O[C@H]3O[C@H](CO)[C@@H](O)[C@H](N)[C@H]3O)[C@H](N)C[C@@H]2N)[C@@H](O)[C@H](O)[C@H]1O` [KANAMYCIN A], binding was characterised by a dissociation constant (Kd) of 18000 nM. This Kd is about 12-fold higher than that of the compound before.
The compound `NC[C@H]1O[C@H](O[C@H]2[C@@H](O[C@@H]3O[C@H](CO)[C@@H](O[C@@H]4O[C@H](CO)[C@H](O)[C@H](O)[C@H]4O)[C@H]3O)[C@@H](O)[C@H](N)C[C@@H]2N)[C@H](N)[C@H](O)[C@@H]1O` came in with a Kd of 28000 nM.
As to `NC[C@H]1O[C@H](O[C@H]2[C@H](O)[C@@H](O)[C@H](N)C[C@@H]2N)[C@H](N)[C@@H](O)[C@@H]1O` [NEAMINE], binding was put at a Kd of 7800 nM.
The value for `NC[C@@H]1O[C@H](O[C@H]2[C@@H](O)[C@H](O[C@@H]3[C@@H](O)[C@H](N)C[C@H](N)[C@H]3O[C@H]3O[C@H](CO)[C@@H](O)[C@H](O)[C@H]3N)O[C@@H]2CO)[C@H](N)[C@@H](O)[C@@H]1O` [PAROMOMYCIN] was 200 nM; that for `NCC1OC(OC2C(N)CC(N)C(O)C2OC2OC(CO)C(OC3OC(CN)C(O)C(O)C3O)C2O)C(N)C(O)C1O` (stereo not drawn) was 700 nM.
With `NC[C@H]1O[C@H](O[C@H]2[C@H](O)[C@@H](O[C@H]3O[C@H](CO)[C@@H](O)[C@H](N)[C@H]3O)[C@H](N)C[C@@H]2N)[C@H](N)[C@@H](O)[C@@H]1O` [BEKANAMYCIN] the figure was 1400 nM.
For `NCCC(O)C(=O)N[C@@H]1C[C@H](N)[C@@H](O[C@H]2O[C@H](CN)[C@@H](O)[C@H](O)[C@H]2N)[C@@H](O[C@@H]2O[C@H](CO)[C@@H](O)[C@H]2O)[C@H]1O` (stereo partly drawn) [BUTIROSIN B], the Kd was 27000 nM. Against the preceding compound, the Kd is about 19-fold higher.
The compound `NC[C@@H]1O[C@H](O[C@H]2[C@@H](O)[C@H](O[C@@H]3[C@@H](O)[C@H](N)C[C@H](N)[C@H]3O[C@H]3O[C@H](CN)[C@@H](O)[C@H](O)[C@H]3N)O[C@@H]2CO)[C@H](N)[C@@H](O)[C@@H]1O` [FRAMYCETIN] gave a Kd of 19 nM.
The compound `NCCCNCC[C@H]1[C@@H](O)[C@H](O[C@H]2[C@@H](O)[C@H](N)C[C@H](N)[C@H]2O[C@H]2O[C@H](CN)[C@H](O)[C@H](O)[C@H]2N)O[C@@H]1CO` returned a Kd of 260 nM.
With `NC[C@H]1O[C@H](O[C@H]2[C@H](O[C@@H]3O[C@H](CO)[C@@H](O)[C@H]3O)[C@@H](O)[C@H](N)C[C@@H]2N)[C@H](N)[C@@H](O)[C@@H]1O` [RIBOSTAMYCIN] the figure was 25000 nM; with `N[C@H]1[C@@H](O[C@H]2[C@H](O)[C@@H](O)[C@H](N)C[C@@H]2N)O[C@H](CO)[C@@H](O)[C@@H]1O` [PAROMAMINE], below 100000 nM.
